Reference: publication PMC6202471 (CPT: Pharmacometrics & Systems Pharmacology, 2018)
Like-named read-outs stand apart in the source and are kept apart here.

Tests used:
[1] = cited from earlier work; for AUC, NCA results: trapezoidal rule with extrapolation to infinity
[2] = cited from earlier work; for f u,GW, unbound drug fraction in the gut wall: fixed to 1
[3] = Semimechanistic population pharmacokinetic model; settings: for CLINT,H, intrinsic hepatic clearance, SIR median: SIR 20,000 samples, 2,000 resamples; for CLINT,H, intrinsic hepatic clearance, SIR median / CLINT,GW, intrinsic gut wall clearance, SIR median / Q PER1, central to first peripheral compartment clearance, SIR median / V C, volume of central compartment, SIR median / V PER1, volume of first peripheral compartment, SIR median / V C, volume of central compartment, NONMEM mean θ estimate / V PER1, volume of first peripheral compartment, NONMEM mean θ estimate: norketamine values apparent; for CLINT,GW, intrinsic gut wall clearance, NONMEM mean θ estimate / CLINT,H, intrinsic hepatic clearance, NONMEM mean θ estimate: norketamine values apparent (F met set to 1)
[4] = cited from earlier work; for K a,TIC, absorption rate constant, fixed to a published value: FIXED in the model
CYP2B6 [5] = target: T1, CYP2B6 (Homo sapiens, UniProt P20813); settings: after administration of ticlopidine
T1 sequence (P20813 1-491): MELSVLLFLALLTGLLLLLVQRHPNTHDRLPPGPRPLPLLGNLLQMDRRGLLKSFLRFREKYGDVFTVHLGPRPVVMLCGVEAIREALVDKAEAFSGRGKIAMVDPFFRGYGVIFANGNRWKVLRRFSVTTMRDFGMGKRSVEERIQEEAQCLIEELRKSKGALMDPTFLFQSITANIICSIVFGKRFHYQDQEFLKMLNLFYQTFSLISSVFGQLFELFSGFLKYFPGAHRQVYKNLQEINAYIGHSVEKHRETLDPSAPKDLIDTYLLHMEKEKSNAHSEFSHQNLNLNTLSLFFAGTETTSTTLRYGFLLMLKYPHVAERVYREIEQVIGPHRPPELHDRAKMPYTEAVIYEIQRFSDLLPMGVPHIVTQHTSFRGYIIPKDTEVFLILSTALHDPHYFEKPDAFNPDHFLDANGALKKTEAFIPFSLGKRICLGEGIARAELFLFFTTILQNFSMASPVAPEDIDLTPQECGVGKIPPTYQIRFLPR

CYP2B6 [6] = target: T1, CYP2B6; settings: in vitro study; cited from earlier work
[7] = S-ketamine p.o. ticlopidine-phase

Row | SMILES | f u,GW, unbound drug fraction in the gut wall [2] | CLINT,H, intrinsic hepatic clearance, SIR median [3] [L/h] | CLINT,GW, intrinsic gut wall clearance, SIR median ([3]; SIR) [L/h] | Q PER1, central to first peripheral compartment clearance, SIR median ([3]; SIR) [L/h] | V C, volume of central compartment, SIR median ([3]; SIR) [L] | V PER1, volume of first peripheral compartment, SIR median ([3]; SIR) [L] | Interindividual variability on CLINT,H, NONMEM estimate ([3]; exponential IIV model) | Interindividual variability on CLINT,H, SIR median ([3]; exponential IIV model, SIR) | V C, volume of central compartment, NONMEM mean θ estimate ([3]; final model) [L] | V PER1, volume of first peripheral compartment, NONMEM mean θ estimate ([3]; final model) [L] | CLINT,GW, intrinsic gut wall clearance, NONMEM mean θ estimate ([3]; final model) [L/h] | CLINT,H, intrinsic hepatic clearance, NONMEM mean θ estimate ([3]; final model) [L/h] | C max, NCA results ([1]; S-ketamine i.v. placebo-phase) [ng/mL] | C max, NCA results ([1]; S-ketamine p.o. placebo-phase) [ng/mL] | AUC, NCA results ([1]; S-ketamine p.o. placebo-phase) [ng·h/mL] | C max, NCA results [1, 7] [ng/mL] | AUC, NCA results [1, 7] [ng·h/mL] | other results
1 | CCC(C)n1ncn(-c2ccc(N3CCN(c4ccc(OCC5COC(Cn6cncn6)(c6ccc(Cl)cc6Cl)O5)cc4)CC3)cc2)c1=O (stereo not drawn) [Itraconazole] |  |  |  |  |  |  |  |  |  |  |  |  |  |  |  |  |  | Effect on plasma concentrations of orally administered S-ketamine ([1]; CYP3A inhibitor pretreatment, healthy volunteers): no significant effect
2 | NC1(c2ccccc2Cl)CCCCC1=O (stereo not drawn) [Norketamine, norketamine] | 1 | 73.4 | 46.5 | 20.1 | 88 | 88.8 | 0.10 | 0.10 | 88.4 | 88.9 | 44.4 | 73.5 | 14 | 61 | 292 | 46 | 310 | f u,NK, unbound drug fraction in the blood ([2]; norketamine): 0.50
3 | CN[C@]1(c2ccccc2Cl)CCCCC1=O [S‐ketamine] | 1 | 304 | 1.22 | 288 | 14.4 | 102 | 0.25 | 0.26 | 14.4 | 102 | 1.19 | 301 | 32 | 9.9 | 21 | 17 | 54 | Share of S-ketamine metabolized to norketamine in vivo [4]: ~ 80%; F met, true value for S-ketamine to norketamine metabolism ([4]; humans, set to 1 in the model): b Should be considered as apparent rather than absolute values, as F met was set to 1 but true value of F met = 0.80 in humans for S‐ketamine to norketamine metabolism.; Intrinsic hepatic clearance of S-ketamine (CYP2B6 [5]): 113 L/h; Total hepatic clearance of S-ketamine (CYP2B6 [5]; well-stirred model): 60 L/h; f u,SK, unbound drug fraction in the blood ([2]; S-ketamine): 0.70; K a, absorption rate constant, SIR median ([3]; SIR): 1.78 h⁻¹; Q PER2, central to second peripheral compartment clearance, SIR median ([3]; SIR): 22.3 L/h; V PER2, volume of second peripheral compartment, SIR median ([3]; SIR): 180 L; Interindividual variability on CLINT,GW, NONMEM estimate ([3]; exponential IIV model): 2.1; Interindividual variability on K a, NONMEM estimate ([3]; exponential IIV model): 0.42; Interindividual variability on V PER1, NONMEM estimate ([3]; exponential IIV model): 0.045; Interindividual variability on CLINT,GW, SIR median ([3]; exponential IIV model, SIR): 2.0; Interindividual variability on K a, SIR median ([3]; exponential IIV model, SIR): 0.44; Interindividual variability on V PER1, SIR median ([3]; exponential IIV model, SIR): 0.046; K a, absorption rate constant, NONMEM mean θ estimate ([3]; final model): 1.76 h⁻¹; V PER2, volume of second peripheral compartment, NONMEM mean θ estimate ([3]; final model): 180 L; Total hepatic clearance of S-ketamine ([3]; placebo phase, well-stirred model): 71 L/h
4 | Clc1ccccc1CN1CCc2sccc2C1 [Ticlopidine, ticlopidine] | 1 |  |  |  | 50.8 | 208.7 |  |  | 50.3 | 191 |  |  |  |  |  |  |  | K a,TIC, absorption rate constant, fixed to a published value [4]: 3.3 (FIXED) /h; K a,TIC, absorption rate constant, fixed to a published value ([4]; listed as ticlopidine): 3.3 h⁻¹; Ticlopidine half-life after multiple dosing [4]: increased
5 | CNC1(c2ccccc2Cl)CCCCC1=O (stereo not drawn) [ketamine] |  |  |  |  |  |  |  |  |  |  |  |  |  |  |  |  |  | Bioavailability after oral administration ([4]; extensive first-pass metabolism): ~ 17%; Fraction of ketamine metabolized by hepatic CYP2B6 (CYP2B6 [6]): around 60%
